IC50 data for two compounds are collected here from BindingDB's records for doi:10.1016/j.bmc.2007.01.049 (University of Ferrara, 2007).

The target in the assay is deoxyguanosine kinase (Homo sapiens). The assay is described as follows: Inhibition of human dGK assessed as […] phosphorylation.

By IC50 is commonly meant the point on the concentration scale where inhibition reaches its midpoint. On to `CCCCCCCC(=O)O[C@H]1[C@H](O)[C@@H](CO)O[C@H]1n1cnc2c(=O)[nH]c(N)nc21` [9-(2'-O-octanoyl-beta-D-arabinofuranosyl)guanine], for which the IC50 is greater than 500 µM.

With `CCCCCCCC(=O)Nc1nc2c(ncn2[C@@H]2O[C@H](CO)[C@@H](O)[C@@H]2OC(=O)CCCCCCC)c(=O)[nH]1` [N2-octanoyl-9-(2'-O-octanoyl-beta-D-arabinofuranosyl)guanine], the IC50 was greater than 500 µM.
